Data: patent publication US11844754B2, “Methods for treatment of Parkinson's disease” (NeuroDerm, Ltd., priority 2020, dated 2023)
Read-outs that look alike come from different tables or passages of the source.

Experiments:
[1] = Plasma exposure of LD and CD after SC infusion, oral IR tablet, and SC + oral coadministration (crossover, Example 1); assay type: in vivo, healthy subjects (human); settings: for 1. Treatment A AUC (0-8) × 0.853* / AUC(0-t): human; for 1. Treatment A AUC (0-8) × 0.853*: sc
Excerpt: A test was run in order to assess the plasma exposure of levodopa (LD) following the coadministration of LD and carbidopa (CD) in both subcutaneous (SC) and oral administrations. Accordingly, results obtained from a combined SC+oral administration were compared to results obtained from SC administration alone and from oral administration alone. An additive plasma exposure and PK profile was expected, i.e., it was expected that the SC+oral coadministration would provide results equal to the additive results of the SC and oral administrations, when each was administered separately.
16 healthy subjects (18-50 years) were treated in a crossover manner, i.e., sequentially, with a washout period of 6 days between the following two treatments:
Treatment A: A total dose of 180/22.5 mg LD/CD (formulation A) was administered by SC infusion over the course of 8 hours, at a steady infusion rate.
Treatment B: An immediate release (IR) tablet of 100/25 mg LD/CD was administered orally at time 0 h.
Following a 32 hour washout period, the same 16 healthy subjects were administered with LC/CD both orally and subcutaneously according to the following treatment:
Treatment C: A dose of 153.6/19.2 LD/CD (formulation A) was administered by SC infusion over the course of 8 hours, at a steady infusion rate, combined with a single co-administration of an oral IR LD/CD 100/25 mg tablet, 4 hours after the initiation of the infusion. Total LD/CD dose: 253.6/44.2 mg.
Blood samples were collected at the following time points:
Treatment A: 0 (prior to treatment initiation), 0.5 h, 1 h, 2 h, 3 h, 4 h, 5 h, 5.5 h, 6 h, 7 h, 8 h (prior to the end of the infusion).
Treatment B: 0 (prior to treatment initiation), 0.5 h, 1 h, 2 h, 3 h, 4 h.
The normalized AUC0-8 of LD and CD of Treatment C, resulting from the combined SC and oral treatment, as described above, was calculated and compared to the sum of the normalized LD and CD AUCs obtained from Treatment A (AUC0-8 resulting from 8 h SC infusion) and Treatment B (AUC0-4 resulting from one IR oral tablet).

[2] = Dose proportionality of SC LD/CD, clinical trial ND0612-001 (Example 2a); assay type: in vivo, healthy male subjects (human); settings: 24 hour continuous SC infusion of LD (6% w/w)/CD (1.4% w/w) at 80, 120, 160, 200, 240 μl/h
Description: Subjects were administered with a composition comprising LD (6% w/w)/CD (1.4% w/w) by way of a 24 hour continuous infusion at varying infusion rates: • Group 1: 80 μl/h • Group 2: 120 μl/h • Group 3: 160 μl/h • Group 4: 200 μl/h • Group 5: 240 μl/h Several PK parameters were derived for both LD and CD in the dose proportionality assessment, including AUC (hr*ng/mL), Cmax (ng/mL), C15 (ng/mL), and C24 (ng/mL).

in vivo = settings: for AUC: female, pig, in vivo, sc, 600 mg, SC treatment AUC (G1) Actual
Description: The objective of this study was to determine the pharmacokinetics (PK) of levodopa (LD) in domestic pigs following continuous subcutaneous (SC) infusion of a levodopa prodrug, exemplified using LD-Tyr, administered concomitantly with oral Levodopa.
Table 3 provides the LD-Tyr formulation tested in this study: […]
The study consisted of 3 dosing sessions in which 5 female pigs (Swine/Landrace×large White, ˜40-50 kg each) were treated with the LD-Tyr solution of Table 3 and/or Sinemet IR oral tablets (CD/LD 25/100 mg tablet) in a cross-over design with up to 4-day washout period between dosing sessions, as detailed in the following tables:
As presented in Tables 4 and 5 above, the study included the following three test groups: • G1—received only SC LD-Tyr (600 mg total daily dose); • G2—received only oral LD (300 mg total daily dose); and • G3—received both SC LD-Tyr (600 mg total daily dose) and oral LD (200 mg total daily dose). Pharmacokinetics Blood Collection
Blood samples for the determination of LD-Tyr (in groups 1 and 3), as well as LD and CD plasma levels (in all groups) were collected from the pigs at the following timepoints: • 0 (pre-dose), 30 min, 1 h, 2 h, 3 h, 4 h, 4.5 h, 5 h, 6 h, 7 h, 8 h, 8.5 h, 9 h, 10 h, 11 h, 13 h, 15 h 18 h following treatment initiation. In case of pump occlusion (groups 1 and 3) resulting in infusion cessation, no further blood samples will be collected. Tablets were administrated before blood collection (time 0, 4 and 8 h). Bioanalysis
Plasma samples were analyzed for concentration of LD-Tyr (groups 1 and 3), as well as LD and CD (for all groups) using a qualified LC-MS/MS analytical method.
PK parameters (at least Cmax, tmax, t1/2, AUC) for LD-Tyr, LD and CD were calculated by noncompartmental methods using appropriate software (e.g. Phoenix® WinNonlin®). Individual and mean was calculated for quantitative parameters.
The LD exposure obtained from the SC infusion is considered to be the baseline.

[3] = Plasma carbidopa Cmax after SC administration of several carbidopa doses, clinical trial ND0612-005a and ND0612-005b (Example 2b); assay type: in vivo, subjects (human); settings: SC over 24 hours; 60 mg/ml levodopa with 7.5, 6 or 4 mg/ml carbidopa; 17.9, 26.9, 33.6 mg/24 h carbidopa
Description: In a separate clinical trial (ND0612-005a and ND0612-005b, open label design studies), the plasma carbidopa levels were tested in view of the subcutaneous administration of several carbidopa doses. Three formulations, comprising 60 mg/ml levodopa and (a) 7.5 mg/ml; (b) 6 mg/ml; or 4 mg/ml of carbidopa, were administered to three groups of subjects over the course of 24 hours, providing a total of 17.9 mg/24 h carbidopa to each subject in the first group, 26.9 mg/24 h carbidopa to each subject in the second group and 33.6 mg/24 h carbidopa to each subject in the third group.

What does the source list for `N[C@@H](Cc1ccc(O)c(O)c1)C(=O)O` [LD, L-3,4-dihydroxyphenylalanine]?
1. Treatment A AUC (0-8) × 0.853* ([1]; in vivo): 2412; AUC(0-t) ([1]; in vivo, plasma LD, formulation A 153.6/19.2 LD/CD SC infusion over 8 h + oral IR LD/CD 100/25 mg tablet at 4 h, individual subjects, read-out: 4. Treatment C AUC (0-8) [Observed]): 4770 ng·h/mL; AUC(0-t) ([1]; in vivo, plasma LD, formulation A 180/22.5 mg LD/CD SC infusion over 8 h, AUC multiplied by 0.853 to equal SC dose of Treatment C, individual subjects, read-out: 1. Treatment A AUC (0-8) × 0.853*): 2310 ng·h/mL; AUC(0-t) ([1]; in vivo, plasma LD, oral IR tablet 100/25 mg LD/CD at 0 h, individual subjects, read-out: 2. Treatment B AUC (0-4)): 1420 ng·h/mL; AUC(0-t) ([1]; plasma LD, formulation A 180/22.5 mg LD/CD SC infusion over 8 h, AUC multiplied by 0.853 to equal SC dose of Treatment C, individual subjects, read-out: 1. Treatment A AUC (0-8) × 0.853*): 3090 ng·h/mL; Observed (C) vs. Additive Ratio ([1]; in vivo): higher than expected; 3. Combined 1 + 2 [Estimated] ([1]; plasma LD, sum of normalized Treatment A and Treatment B AUCs, individual subjects): 3087; dose proportionality of PK parameters (AUC, Cmax, C15, C24) [2]: demonstrated dose proportionality; AUC (in vivo; Landrace x large White): 17600 ng·h/mL; AUC (in vivo; plasma LD AUC, pigs, SC LD-Tyr/CD 600/26 mg over 8 hrs only, individual animals): 18000 ng·h/mL; increase of LD plasma exposure by oral add-ons on top of SC administration, versus predicted (average) (in vivo; pigs, SC LD-Tyr/CD + oral LD/CD): over 50%

With `C[C@@](Cc1ccc(O)c(O)c1)(NN)C(=O)O` [CD, carbidopa] as the compound, how does the “1. Treatment A AUC (0-8) × 0.853*” value ([1]; in vivo) read?
Its value is 900.

And the AUC(0-t) ([1]; in vivo, plasma CD, formulation A 153.6/19.2 LD/CD SC infusion over 8 h + oral IR LD/CD 100/25 mg tablet at 4 h, individual subjects, read-out: 4. Treatment C AUC (0-8) [Observed])?
Its AUC(0-t) is 1050 ng·h/mL.

And the AUC(0-t) ([1]; in vivo, plasma CD, formulation A 180/22.5 mg LD/CD SC infusion over 8 h, AUC multiplied by 0.853, individual subjects, read-out: 1. Treatment A AUC (0-8) × 0.853*)?
The AUC(0-t) was 942 ng·h/mL.

What about the AUC(0-t) ([1]; in vivo, plasma CD, oral IR tablet 100/25 mg LD/CD at 0 h, individual subjects, read-out: 2. Treatment B AUC (0-4)) of the same compound?
Its AUC(0-t) is 322 ng·h/mL.

What about the “Observed (C) vs. Additive Ratio” value ([1]; in vivo) of the same compound?
The value was “lower than expected”.

What about the “dose proportionality of PK parameters (AUC, Cmax, C15, C24)” value [2] of the same compound?
The value was “demonstrated dose proportionality”.

What about the “dose proportionality of carbidopa Cmax” value [3] of the same compound?
The value was “clear dose proportionality”.
